According to publication PMC6472337, “L amino acid transporter structure and molecular bases for the asymmetry of substrate interaction” (Nature Communications, 2019):
Values joined by “and” are separate entries in the source; they are usually repeats but may differ in a detail not shown here. Identical values can stand only once. Like-named read-outs stand apart in the source and are kept apart here.

What was measured:
BasC Y236F mutant = experiment: [3H]L-alanine transport in BasC Y236F proteoliposomes; type: biochemical, Carnobacterium sp AT7
Description: BasC was overexpressed as a C-terminal fusion with GFP in E. coli BL21 Star (DE3) cells grown in LB media. Single point mutations (Supplementary Table 2) were introduced using the QuikChange site-directed mutagenesis kit (Stratagene, San Diego, CA). All mutations were verified by sequencing. Expression was induced with 0.1 mM isopropyl-ß-D-thiogalactopyranoside at 37 °C for 22 h. Cells were harvested at 5000 × g for 15 min at 4 °C and stored at −80 °C until use. Cell pellets were thawed and resuspended in 20 mM Tris-Base, 150 mM NaCl, pH 7.4. Cells were pelleted again at 5000 × g for 15 min at 4 °C, resuspended in lysis buffer (20 mM Tris-Base, 350 mM NaCl, pH 7.4, 1 mM pefabloc and complete mini protease inhibitor cocktail) (Roche, Basel Switzerland) and then broken using a Cell Disruptor (four cycles at 20,000 psi; Constant Systems Ltd., Daventry, UK). Cell debris was removed by centrifugation (15,000 × g for 1 h at 4 °C), and the supernatant was subjected to ultracentrifugation (200,000 × g for 2 h at 4 °C). The membrane pellet was resuspended in 20 mM Tris-Base, 150 mM NaCl, pH 7.4 and 10% glycerol at a protein concentration of 8–12 mg ml^−1, and then frozen in liquid nitrogen and stored at −80 °C until use.
BasC-GFP protein was reconstituted in E. coli polar lipids (Sigma-Aldrich, Madrid, Spain), as previously described. Lipids were dried under N2 and suspended in reconstitution buffer (20 mM Tris-Base, 150 mM NaCl, pH 7.4). The suspension was sonicated to clarity and purified BasC protein was added to reach the desired protein to lipid ratio of 1:100 (w:w). To destabilize the liposomes, 1.25% ß-D-octylglucoside was added and the mixture was incubated on ice with occasional agitation for 5 min. DDM and ß-D-octylglucoside were removed by dialysis for 40 h at 4 °C against 100 volumes of dialysis buffer. Proteoliposome (PL) suspensions were frozen in liquid N2 and stored at −80 °C until use.
For uptake experiments, the desired intraliposomal amino acid concentration was added to the PL suspension, which was then subjected to three freeze/thaw cycles. The extraliposomal amino acid content was then removed by ultracentrifugation (100,000 × g for 1 h at 4 °C) and PLs were resuspended to one-third of the initial volume with reconstitution buffer. Amino acid uptake assays were initiated after mixing 10 μl of cold PLs with 180 μl of transport buffer (20 mM Tris-Base, 150 mM NaCl, pH 7.4 plus 0.5–1 µCi/180 µl of radiolabeled L-amino acid (Perkin Elmer, Waltham, MA)) supplemented with the unlabeled amino acid to the desired concentration. This mixture was then incubated at room temperature for the indicated periods. […] Filters were then washed twice with 2 ml of stop buffer and dried, and the trapped radioactivity was counted. Transport measured in PLs containing no amino acid was subtracted from each data point to calculate the net exchange. […] BasC protein in PLs was determined by Coomassie blue staining in SDS-PAGE gels compared with known amounts of BasC in DDM micelles, determined by BCA assay (Pierce, Rockford, IL) and loaded in the same gel.

hAsc-1 K194A mutant = target: T1, hAsc-1 K194A mutant (Homo sapiens, UniProt Q9NS82, K194A); experiment: [3H]L-alanine uptake in HeLa cells, hAsc-1 K194A
T1 sequence (Q9NS82 1-523 K194A): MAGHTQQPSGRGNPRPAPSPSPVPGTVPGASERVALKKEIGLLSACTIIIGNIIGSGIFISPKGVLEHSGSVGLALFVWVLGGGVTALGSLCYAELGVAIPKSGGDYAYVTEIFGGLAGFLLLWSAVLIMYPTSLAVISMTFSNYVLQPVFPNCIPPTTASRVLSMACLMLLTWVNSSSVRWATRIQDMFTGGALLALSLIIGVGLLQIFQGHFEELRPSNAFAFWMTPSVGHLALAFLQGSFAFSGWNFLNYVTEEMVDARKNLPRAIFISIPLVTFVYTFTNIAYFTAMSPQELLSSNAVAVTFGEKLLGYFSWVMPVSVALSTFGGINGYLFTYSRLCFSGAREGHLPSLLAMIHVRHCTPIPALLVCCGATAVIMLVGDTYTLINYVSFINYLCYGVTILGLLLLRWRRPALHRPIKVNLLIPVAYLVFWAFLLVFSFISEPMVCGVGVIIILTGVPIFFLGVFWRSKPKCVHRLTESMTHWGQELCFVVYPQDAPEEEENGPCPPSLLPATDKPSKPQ
T1 sequence (P08195 1-529 partner): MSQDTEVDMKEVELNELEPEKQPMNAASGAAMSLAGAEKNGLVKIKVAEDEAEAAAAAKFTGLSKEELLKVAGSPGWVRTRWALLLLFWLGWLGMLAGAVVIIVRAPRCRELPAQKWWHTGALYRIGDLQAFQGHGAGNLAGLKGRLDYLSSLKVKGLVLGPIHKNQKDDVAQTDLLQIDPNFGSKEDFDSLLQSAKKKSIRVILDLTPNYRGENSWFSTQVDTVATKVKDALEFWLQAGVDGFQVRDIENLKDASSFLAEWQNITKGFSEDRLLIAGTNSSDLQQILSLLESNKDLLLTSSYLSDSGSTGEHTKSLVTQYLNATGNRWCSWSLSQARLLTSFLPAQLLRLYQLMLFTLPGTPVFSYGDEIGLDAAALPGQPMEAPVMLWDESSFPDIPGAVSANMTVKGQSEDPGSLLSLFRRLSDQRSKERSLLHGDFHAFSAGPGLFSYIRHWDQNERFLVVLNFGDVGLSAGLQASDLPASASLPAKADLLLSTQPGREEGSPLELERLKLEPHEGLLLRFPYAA

Compound: C[C@H](N)C(=O)O [L-alanine]
- 10 µM [3H]L-alanine/4 mM L-alanine exchange normalized to wild-type (BasC Y236F mutant; BasC Y236F in PLs, WT = 100, n=1-3 and mean): 116.03 and 123.34 and 111.98 and 142.02
- Vmax (BasC Y236F mutant; Y236F): 4.58 ± 0.17 pmols L-alanine µg protein^−1 s^−1
- increase of cytoplasmic apparent affinity vs. wild-type BasC (BasC Y236F mutant; Y236F): ~ 4 fold
- saturation of the transporter at 4 mM intraliposomal L-alanine (BasC Y236F mutant; Y236F mutant): fully saturated
- increase in function (BasC Y236F mutant; Y236F vs wild-type, extracellular 10 μM [3H]L-alanine against 4 mM intraliposomal L-alanine): about 20%
- Km (BasC Y236F mutant; extracellular side, Y236F, read-out: Km (o)): 50.2 ± 3.44 µM
- Km (BasC Y236F mutant; intracellular side, Y236F, read-out: Km (i)): 560 ± 110 µM
- reduction of Vmax vs. wild-type (hAsc-1 K194A mutant): ~ 10 fold
- reduction of external apparent affinity vs. wild-type (hAsc-1 K194A mutant): ~ 10 fold
